Like-named read-outs stand apart in the source and are kept apart here. Residues, ends and D or L forms follow the SMILES beside them. No end group written: not given here. *: point of attachment. NHhexadecyl = CCCCCCCCCCCCCCCCN*
Legend:
[1] = tested on: E. coli (ATCC25922); format: cell-based, Escherichia coli
Method: (§1) The MIC of arginine-based peptides was assessed using the microbroth dilution approach. Our in vitro screening included a panel of Gram-negative bacteria, Escherichia coli (ATCC 25922 and enterohaemorrhagic O157:H7) and Pseudomonas aeruginosa (PA01 and the drug-resistant strain NCTC 13437), and Gram-positive bacteria (Staphylococcus aureus ATCC 12600). Five-millilitre overnight cultures in Lysogeny broth, prepared from single isolated colonies, were diluted to 5×10^6 c.f.u. ml^−1 mid-log phase in Mueller–Hinton (MH) broth. Next, peptide concentrations (0 to 1 mM) were serially diluted twofold in 96-well plates and incubated overnight at 37 °C with the tested bacterial strains. In each case, the MIC was determined as the lowest peptide concentration at which no detectable bacterial growth was observed, employing an absorbance-based assay using a Tecan Spark® multimode plate reader. Subsequently, 10 µl aliquots from each peptide dilution were transferred to MH agar (1.5%) plates to determine the minimum bactericidal concentration (MBC) which was assessed by establishing at which concentration no visible growth of bacteria (assessed via colony formation) on the plate was observed.

[2] = tested on: E. coli (O157:H7); format: cell-based, Escherichia coli; details: for MBC: 10 µl aliquots plated on MH agar, no visible colonies; for MIC: MH broth, 5×10^6 cells, 24 h, 37 °C, absorbance 600 nm, triplicate
Method: as §1

[3] = tested on: P. aeruginosa (NCTC13437); format: cell-based, Pseudomonas aeruginosa; details: P. aeruginosa NCTC13437 (drug-resistant); for MBC: 10 µl aliquots plated on MH agar, no visible colonies; for MIC: MH broth, 5×10^6 cells, 24 h, 37 °C, absorbance 600 nm, triplicate
Method: as §1

[4] = tested on: P. aeruginosa (PA01); format: cell-based, Pseudomonas aeruginosa; details: for MIC: 24 h
Method: as §1

[5] = tested on: S. aureus (ATCC12600); format: cell-based, Staphylococcus aureus
Method: as §1

[6] = tested on: E. coli (25922); format: cell-based, Escherichia coli; details: for MIC, Control: control without serum or trypsin; for MIC, Trypsin: peptide incubated with 5 µM SGMT trypsin in 50 mM Tris-HCl, 1 mM CaCl2, pH 7.6, 24 h at 37 °C before MIC; for MIC, 20% human serum: peptide incubated with 20% human serum 24 h at 37 °C before MIC; for MIC, 50% human serum: peptide incubated with 50% human serum 24 h at 37 °C before MIC
Method: as §1
(§2) The antimicrobial activity and structural stability of arginine-rich peptides were evaluated in the presence of human serum (20% and 50 %) and 5 µM Sequencing Grade Modified Trypsin (SGMT, Promega). Briefly, fresh human blood was collected in EDTA tubes and allowed to clot at room temperature for 1 h. Serum was then collected following centrifugation at 2,000 r.p.m. for 10 min at 4 °C. Peptides were incubated with 20%, 50% human serum and 5 µM SGMT in 50 mM Tris-HCl buffer (1 mM CaCl₂, pH 7.6) for 24 h at 37 °C. After the incubation period, the solutions were further incubated with E. coli (ATCC 25922 and O157:H7), P. aeruginosa (PA01, NCTC13437) and S. aureus (ATCC12600), and the MIC was assessed as described in the ‘Antibacterial assessment’ section. Additionally, the samples were analysed using electrospray ionization MS to monitor structural changes based on the molecular weight of the peptides.

[7] = tested on: P. aeruginosa (PA01); format: cell-based, Pseudomonas aeruginosa; details: for MIC, Control: control without serum or trypsin; for MIC, Trypsin: peptide incubated with 5 µM SGMT trypsin in 50 mM Tris-HCl, 1 mM CaCl2, pH 7.6, 24 h at 37 °C before MIC; for MIC, 20% human serum: peptide incubated with 20% human serum 24 h at 37 °C before MIC; for MIC, 50% human serum: peptide incubated with 50% human serum 24 h at 37 °C before MIC
Method: as §1, §2

[8] = tested on: S. aureus (12600); format: cell-based, Staphylococcus aureus; details: for MIC, Control: control without serum or trypsin; for MIC, Trypsin: peptide incubated with 5 µM SGMT trypsin in 50 mM Tris-HCl, 1 mM CaCl2, pH 7.6, 24 h at 37 °C before MIC; for MIC, 20% human serum: peptide incubated with 20% human serum 24 h at 37 °C before MIC; for MIC, 50% human serum: peptide incubated with 50% human serum 24 h at 37 °C before MIC
Method: as §1, §2

[9] = tested on: E. coli; assay: Live/dead SYTO 9/PI fluorescence imaging; format: cell-based, Escherichia coli; details: mid-log phase E. coli, 2× MIC; red = damaged membranes
[10] = tested on: Gram-positive and Gram-negative bacteria; format: cell-based; details: span of MIC and MBC against both Gram-positive and Gram-negative bacteria, Table 2
Method: as §1

[11] = tested on: L929 fibroblasts; format: cell-based; details: 24 h
Method: The toxicity screening of arginine-rich peptides was conducted in two cell types: human red blood cells (hRBCs) and L929 fibroblasts. The peptide-induced lysis of hRBCs was estimated based on the release of haemoglobin into solution, following a previously established protocol with slight modifications. Briefly, fresh human blood was collected from a healthy donor. To isolate hRBCs from plasma, the blood was centrifuged at 2,000 r.p.m. for 10 min at 4 °C, and the cells were carefully resuspended in 0.5% suspension buffer. After, they were added to a 96-well plate containing various concentrations of peptides diluted in PBS. After incubation for 1 h at 37 °C, cells were spun at 2,000 r.p.m. for 10 min at 4 °C to pellet cell debris and the supernatant collected and measured at OD414. The data was calculated as the % haemolysis relative to the positive control (cells treated with 1% Triton X-100). The toxicity screening using L929 fibroblasts was based on the metabolic activity of cells using an MTS colourimetric assay (Fig. S2). […] The absorbance was measured at OD490 using a Tecan Spark multimode plate reader. The quantification of viable cells was expressed as a % and determined by comparing peptide-treated groups with control cells grown in their absence. […]

[12] = tested on: E. coli ATCC 25922; assay: Cytoplasmic membrane depolarization, DiSC3(5); format: cell-based, Escherichia coli; details: peptide at 2× MIC or 1,000 µM, positive control Triton X-100
Method: The dye 3,3′-dipropylthiadicarbocyanine iodide DiSC3(5) was employed to evaluate perturbation of the bacterial membrane by our designed arginine-rich peptides. For this, a black 96-well microtiter plate containing 150 µl E. coli cells (OD600=0.5) in MH broth per well was incubated with 0.5 µM DiSC3(5) in 5 mM HEPES buffer (pH 7.4, supplemented with 5 mM glucose and 0.1 M KCl) for 15 min to allow for fluorescence quenching. Then, 2× MIC or 1 mM peptide was added, and changes in fluorescence were monitored in real-time (λex=622 nm, λem=670 nm) using a microplate reader.

[13] = target: T1, Sequencing Grade Modified Trypsin (Sus scrofa, UniProt P00761); assay: Stability with trypsin by LC-MS; format: in vitro ADME; details: 5 µM SGMT trypsin, 50 mM Tris-HCl, 1 mM CaCl2, pH 7.6, 24 h, 37 °C; read-out LC-MS (ESI)
T1 construct: purchased Promega
T1 sequence (P00761 9-231): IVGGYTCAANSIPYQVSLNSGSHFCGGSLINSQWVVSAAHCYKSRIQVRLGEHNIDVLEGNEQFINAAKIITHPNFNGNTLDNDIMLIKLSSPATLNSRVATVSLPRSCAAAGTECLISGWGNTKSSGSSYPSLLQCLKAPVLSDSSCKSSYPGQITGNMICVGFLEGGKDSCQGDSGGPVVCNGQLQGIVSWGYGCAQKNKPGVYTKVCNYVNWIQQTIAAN
Method: as §2

[14] = E. coli ATCC25922, 10 µl aliquots plated on MH agar, no visible colonies
[15] = E. coli ATCC25922, MH broth, 5×10^6 cells, 24 h, 37 °C, absorbance 600 nm, triplicate
[16] = P. aeruginosa PA01, 10 µl aliquots plated on MH agar, no visible colonies
[17] = P. aeruginosa PA01, MH broth, 5×10^6 cells, 37 °C, absorbance 600 nm, triplicate
[18] = S. aureus ATCC12600, 10 µl aliquots plated on MH agar, no visible colonies
[19] = S. aureus ATCC12600, MH broth, 5×10^6 cells, 24 h, 37 °C, absorbance 600 nm, triplicate

Row | Molecule | MBC [1, 14] | MIC [1, 15] | MBC [2] | MIC [2] | MBC [4, 16] | MIC [4, 17] | MBC [5, 18] | MIC [5, 19] | MIC, Control [6] | MIC, Trypsin [6] | MIC, 20% human serum [6] | MIC, 50% human serum [6] | MIC, Control [7] | MIC, Trypsin [7] | MIC, 20% human serum [7] | MIC, 50% human serum [7] | MIC, Control [8] | MIC, Trypsin [8] | MIC, 20% human serum [8] | MIC, 50% human serum [8] | also measured
1 | Polymyxin B [reference compound] | 4.8 µM | 2.8 µM | 4.8 µM | 4.8 µM | 4.8 µM | 2.4 µM | > 76.8 µM | > 76.8 µM | 2.8 µM | 2.4 µM | 2.8 µM | 2.4 µM | 2.4 µM | 2.4 µM | 2.4 µM | 2.4 µM | >76.8 µM | >76.8 µM | >76.8 µM | >76.8 µM | MBC [3]: 38.4 µM; MIC [3]: 9.6 µM; Membrane damage, live/dead SYTO 9/PI staining [9]: high presence of red-stained cells indicative of damaged membranes
2 | RRARSAVAS [RRARSAVAS] | >1,000/>1,000 μM | >1,000/>1,000 μM | >1,000/>1,000 μM | >1,000/>1,000 μM | >1,000/>1,000 μM | >1,000/>1,000 μM | >1,000/>1,000 μM | >1,000/>1,000 μM | >1,000 μM | >1,000 μM | >1,000 μM | >1,000 μM | >1,000 μM | >1,000 μM | >1,000 μM | >1,000 μM | >1,000 μM | >1,000 μM | >1,000 μM | >1,000 μM | MBC [3]: >1,000/>1,000 μM; MIC [3]: >1,000/>1,000 μM
3 | RRRRVVVV [Peptide R4V4] | 1,000/>1,000 μM | 1,000/>1,000 μM | 1,000/>1,000 μM | 1,000/>1,000 μM | >1,000/>1,000 μM | >1,000/>1,000 μM | >1,000/>1,000 μM | >1,000/>1,000 μM | 1,000 μM | >1,000 μM | 1,000 μM | >1,000 μM | >1,000 μM | >1,000 μM | >1,000 μM | >1,000 μM | >1,000 μM | >1,000 μM | >1,000 μM | >1,000 μM | –
4 | CCCCCCCCCCCCCCCCNC(=O)[C@H](Cc1ccccc1)NC(=O)[C@H](Cc1ccccc1)NC(=O)[C@H](Cc1ccccc1)NC(=O)[C@H](Cc1ccccc1)NC(=O)[C@H](CCCNC(=N)N)NC(=O)[C@H](CCCNC(=N)N)NC(=O)[C@H](CCCNC(=N)N)NC(=O)[C@@H](N)CCCNC(=N)N [Peptide R4F4-C16] (H-RRRRFFFF-NHhexadecyl; N-terminus and C-terminus assumed) | 1,000/>1,000 μM | 1,000/>1,000 μM | >1,000/>1,000 μM | >1,000/>1,000 μM | >1,000/>1,000 μM | >1,000/>1,000 μM | >1,000/>1,000 μM | >1,000/>1,000 μM | 1,000 μM | >1,000 μM | 1,000 μM | >1,000 μM | >1,000 μM | >1,000 μM | >1,000 μM | >1,000 μM | >1,000 μM | >1,000 μM | >1,000 μM | >1,000 μM | MIC and MBC values over all tested strains [10]: > 1,000 µM; EC50 [11]: 70 µM; Cytoplasmic membrane depolarization, DiSC3(5) fluorescence [12]: Greater effects
5 | RRRRAAAA [Peptide R4A4] | 1,000/>1,000 μM | 1,000/>1,000 μM | >1,000/>1,000 μM | >1,000/>1,000 μM | >1,000/>1,000 μM | >1,000/>1,000 μM | >1,000/>1,000 μM | >1,000/>1,000 μM | 1,000 μM | >1,000 μM | 1,000 μM | >1,000 μM | >1,000 μM | >1,000 μM | >1,000 μM | >1,000 μM | >1,000 μM | >1,000 μM | >1,000 μM | >1,000 μM | –
6 | RRRRFFFF [Peptide R4F4] | – | – | – | – | – | – | – | – | – | – | – | – | – | – | – | – | – | – | – | – | MBC [4]: 250 µM; MIC [4]: 125 µM; MBC ([5]; ATCC12600): 250 µM; MIC ([5]; ATCC12600, 24 h): 125 µM; Stability with trypsin (LC chromatogram and mass spectrum) [13]: degraded into smaller fragments; EC50 [11]: 481 µM
7 | PRRRRFFFF [PR4F4] | – | – | – | – | – | – | – | – | – | – | – | – | – | – | – | – | – | – | – | – | MBC ([1]; ATCC25922): 125 µM; MIC ([1]; ATCC25922, 24 h): 62.5 µM

Reference: paper PMC12873548, “D-amino acid substitution and cyclization enhance the stability and antimicrobial activity of arginine-rich peptides” (Microbiology, 2026)
